Results published in patent US20260174742A1, “INHIBITORS OF CYCLIC ADP RIBOSE HYDROLASE AND METHODS OF USE THEREOF” (Flagship Pioneering Innovations VI, LLC, priority 2022, published 2026).

molecular target: T1, Human recombinant CD38 (Homo sapiens, UniProt P28907); assay: CD38 hydrolase inhibition assay (ε-NAD substrate, fluorescence); type: biochemical; details: 0.2 ng/μL CD38, 100 μM ε-NAD, 15 m at room temperature, excitation 300 nm, emission 410 nm
T1 construct: purchased BPS Bioscience
T1 sequence (P28907 1-300): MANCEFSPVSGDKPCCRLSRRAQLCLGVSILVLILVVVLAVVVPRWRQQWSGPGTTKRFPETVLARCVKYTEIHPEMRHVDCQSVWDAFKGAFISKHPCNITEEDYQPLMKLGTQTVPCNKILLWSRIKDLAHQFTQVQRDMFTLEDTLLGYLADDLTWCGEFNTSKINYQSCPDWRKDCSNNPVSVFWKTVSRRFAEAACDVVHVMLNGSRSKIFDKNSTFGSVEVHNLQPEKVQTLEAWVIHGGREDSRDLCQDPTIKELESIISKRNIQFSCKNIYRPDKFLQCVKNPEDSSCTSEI
Description: Example 9: CD38 Hydrolase Inhibition Assay
The CD38 hydrolase inhibition assay measures the glycohydrolase activity of CD38, using an NAD analog as substrate and measuring formation of a fluorescent ADP ribose analog. A 4× buffer was prepared with 1M sucrose and 160 mM Tris-HCl at pH 7.4, for a final assay concentration of 250 mM sucrose and 40 mM Tris-HCl. The 4× solution was kept at 4° C. and warmed to room temperature before use. Tween20 was added to 1× buffer for a final concentration of 0.05%. Human recombinant CD38 (BPS Bioscience) was diluted to 0.4 ng/μL in 1× buffer and 12.5 μL added to each plate well. Inhibitors were added and DMSO content was normalized to the highest concentration on the plate, with an upper limit of 0.5%. Finally, ε-NAD was diluted to 200 μM in 1× buffer and 12.5 μL added to each plate well, for final well concentrations of 0.2 ng/μL CD38 and 100 μM ε-NAD. Plates were covered and incubated at room temperature for 15 m, and then read on a plate reader using excitation 300 nm and emission 410 nm. […] IC50s for test compounds were determined either using GraphPad Prism software v9.3, or CDD Vault.

SMILES | IC50 [nM]
CO[C@H]1CC[C@H](NC(=O)c2cc(-c3cncs3)cc(N3CCC[C@@H]3CO)c2)CC1 [Compound 105, 3-[(2R)-2-(hydroxymethyl)pyrrolidin-1-yl]-N-[(trans)-4-methoxycyclohexyl]-5-(1,3-thiazol-5-yl)benzamide] | 100 to 1000
CO[C@H]1CC[C@H](NC(=O)c2cc(C)cc(-n3ccnc3)c2)CC1 [Compound 101, 3-(imidazol-1-yl)-5-methyl-N-[(trans)-4-methoxycyclohexyl]benzamide] | 100 to 1000
CO[C@H]1CC[C@H](NC(=O)c2cc(N3CC[C@H](O)C3)cc(-n3ccnc3)c2)CC1 [Compound 104, 3-[(3S)-3-hydroxypyrrolidin-1-yl]-5-(imidazol-1-yl)-N-[(trans)-4-methoxycyclohexyl]benzamide] | 100 to 1000
CO[C@H]1CC[C@H](NS(=O)(=O)c2cc(C)cc(-n3ccnc3)c2)CC1 [Compound 108, 3-(imidazol-1-yl)-5-methyl-N-[(trans)-4-methoxycyclohexyl]benzene sulfonamide] | > 1000
COCCO[C@H]1CC[C@H](NC(=O)c2cc(-c3cnn(C)c3)cc(-c3cncs3)c2)CC1 [Compound 107, 3-(1-methylpyrazol-4-yl)-N-[(trans)-4-(2-methoxyethoxy)cyclohexyl]-5-(1,3-thiazol-5-yl)benzamide] | < 100
CO[C@H]1CC[C@H](NC(=O)c2cc(-c3cnn(C)c3)cc(-n3ccnc3)c2)CC1 [Compound 102, 3-(imidazol-1-yl)-5-(1-methylpyrazol-4-yl)-N-[(trans)-4-methoxycyclohexyl]benzamide] | < 100
